Results reported in paper PMC7708037, “Targeting OGG1 arrests cancer cell proliferation by inducing replication stress” (Nucleic Acids Research, 2020).
Read-outs that look alike come from different tables or passages of the source.

Key:
CCRF-CEM = experiment: Resazurin viability, 5 days; assay type: cell-based, human; conditions: C, T-cell acute lymphoblastic leukemia
Procedure: (§1) Cells were seeded in 96- or 384-well plates and incubated for 3 days for combination experiments or 5 days for single-drug exposure experiments. Resazurin (R7017, SigmaAldrich) was added to a final concentration of 0.01 mg/ml resazurin and fluorescence was measured at ex530/em590 after incubation for 2, 4 or 6 h. Curves were fitted using XLfit software (IDBS) or Prism 8.0 (Graphpad Software), and EC50 values were determined.
(§2) Supplementary Table S1: Effect of OGG1 inhibitors on cancer and non-transformed cell lines.
(§3) Cell lines were incubated with a dilution series of the indicated compounds for 5 days, and viability
(§4) assessed with resazurin. EC50-values were calculated based on the resulting dose -response curves.
(§5) The number of independent experiments is indicated for each value.
(§6) C=cancer;N=non- Disease EC50 n= EC50 n= EC50 n=
transformed (µM) (µM) (µM)
A3 C T-cell acute lymphoblastic leukemia 10.0 12 7.9 7 9.8 5 […]
CCRF-CEM C T-cell acute lymphoblastic leukemia 13.0 5 10.5 2 7.9 2 […]

OGG1 enzyme = OGG1 enzyme (Homo sapiens, UniProt O15527); experiment: OGG1 activity in vitro (biochemical assay); conditions: for IC50: 1 nM OGG1, 10 nM 8oxoA:C substrate, 2 nM APE1, read-out: IC50 of OGG1 inhibition
Sequence of OGG1 enzyme (O15527 whole entry): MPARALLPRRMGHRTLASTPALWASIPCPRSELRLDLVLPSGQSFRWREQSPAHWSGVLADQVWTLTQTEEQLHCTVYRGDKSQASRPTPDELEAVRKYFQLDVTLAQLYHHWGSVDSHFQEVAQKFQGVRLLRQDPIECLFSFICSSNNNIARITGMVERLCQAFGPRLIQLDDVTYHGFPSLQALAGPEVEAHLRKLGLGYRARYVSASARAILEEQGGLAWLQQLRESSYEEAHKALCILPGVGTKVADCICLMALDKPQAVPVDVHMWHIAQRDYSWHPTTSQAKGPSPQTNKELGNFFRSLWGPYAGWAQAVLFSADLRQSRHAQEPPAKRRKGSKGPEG
Procedure: OGG1 activity was assessed in vitro as previously described ([39]).
Figure 7. […] (A) Lack of TH5487 efficacy in vivo. A3 cells were injected subcutaneously in mice, allowed to graft for three days and then administered […] TH5487 orally, once a day on weekdays. Twelve days into the treatment, the dose was increased to 40 mg/kg. Data are average ± SD (n = 9 per treatment group). (B) TH5487 target engagement in A3 xenograft. Tumors were excised following termination, and TH5487 target engagement was analyzed by cellular thermal shift assay, using an antibody specific for the human OGG1 protein. Data are average ± SD (n = 4 different tumors per group). (C) Effect of bovine serum albumin on OGG1 inhibition by TH5487. A dilution series of TH5487 was incubated with OGG1 enzyme and a DNA reporter oligonucleotide containing an OGG1-substrate, in the presence or absence of 1% (w/v) bovine serum albumin. Data are average ± SD of four technical replicates from two independent experiments.
Supplementary Fig. S4: OGG1 inhibitors selectively inhibt cancer cell line proliferation A. TH5796 and TH6943 inhibit OGG1 activity in vitro. OGG1 enzyme was treated with the indicated concentration inhibitor in technical duplicates. The line connects the average values. TH5796 inhibits OGG1 with an […]
with the indicated concentrations of TH5796 or TH6943 and 10 nM 8oxoA:C substrate in the presence of 2 nM APE1 as described. B. Chemical structure of TH5487 and the analogues described in this work.
C. Correlation between TH5487 EC 50 values and TH5796 or TH6943. Cell lines were treated for five […]
experiments. The lines indicate the best fit linear regression line, and R 2 the corresponding coefficient of determination. D. to F. Cancer cell selectivity for TH5487 (D), TH5796 (E) and TH6943 (F). Cell lines were treated as in Fig. 3E, and each point represents the EC50 value determined from 1 –5 independent […]
(1 picture or pasted object on this page, not shown here)

Reh = experiment: Resazurin viability, 5 days; assay type: cell-based, human; conditions: C, Acute lymphocytic leukemia (non-T, non-B)
Procedure: as §1, §2, §3, §4, §5, §6
(§7) transformed (µM) (µM) (µM) […]

LCL#1 = experiment: Resazurin viability, 5 days; assay type: cell-based, human; conditions: LCL#1, N, Non-transformed lymphoblastoid cell line
Procedure: as §1, §2, §3, §4, §5, §6, §7

Jurkat = experiment: Resazurin viability, 5 days; assay type: cell-based, human; conditions: C, T-cell acute lymphoblastic leukemia
Procedure: as §1, §2, §3, §4, §5, §6, §7

RFX393 = experiment: Resazurin viability, 5 days; assay type: cell-based, human; conditions: RFX393, C, Kidney carcinoma
Procedure: as §1, §2, §3, §4, §5, §6, §7

LCL#2 = experiment: Resazurin viability, 5 days; assay type: cell-based, human; conditions: LCL#2, N, Non-transformed lymphoblastoid cell line
Procedure: as §1, §2, §3, §4, §5, §6, §7

ACHN = experiment: Resazurin viability, 5 days; assay type: cell-based, human; conditions: C, Kidney adenocarcinoma
Procedure: as §1, §2, §3, §4, §5, §6, §7

BJ-Ras = experiment: Resazurin viability, 5 days; assay type: cell-based, human; conditions: C, RAS-transformed fibroblast
Procedure: as §1, §2, §3, §4, §5, §6, §7

CCD841 = experiment: Resazurin viability, 5 days; assay type: cell-based, human; conditions: CCD841, N, Non-transformed fibroblast
Procedure: as §1, §2, §3, §4, §5, §6

M059J = experiment: Resazurin viability, 5 days; assay type: cell-based, human; conditions: C, Glioblastoma
Procedure: as §1, §2, §3, §4, §5, §6

786-0 = experiment: Resazurin viability, 5 days; assay type: cell-based, human; conditions: 786-0, C, Kidney adenocarcinoma
Procedure: as §1, §2, §3, §4, §5, §6

KG1a = experiment: Resazurin viability, 5 days; assay type: cell-based, human; conditions: C, Acute myelogenous leukemia
Procedure: as §1, §2, §3, §4, §5, §6

PC3 = experiment: Resazurin viability, 5 days; assay type: cell-based, human; conditions: PC3, C, Prostate adenocarcinoma
Procedure: as §1, §2, §3, §4, §5, §6

A498 = experiment: Resazurin viability, 5 days; assay type: cell-based, human; conditions: A498, C, Kidney carcinoma
Procedure: as §1, §2, §3, §4, §5, §6

HCT116 = experiment: Resazurin viability, 5 days; assay type: cell-based, human; conditions: HCT116, C, Colorectal carcinoma
Procedure: as §1, §2, §3, §4, §5, §6

VH10 = experiment: Resazurin viability, 5 days; assay type: cell-based, human; conditions: VH10, N, Non-transformed fibroblast
Procedure: as §1, §2, §3, §4, §5, §6

SaOS2 = experiment: Resazurin viability, 5 days; assay type: cell-based, human; conditions: SaOS2, C, Osteosarcoma
Procedure: as §1, §2, §3, §4, §5, §6

HT-29 = experiment: Resazurin viability, 5 days; assay type: cell-based, human; conditions: HT-29, C, Colorectal adenocarcinoma
Procedure: as §1, §2, §3, §4, §5, §6

UO31 = experiment: Resazurin viability, 5 days; assay type: cell-based, human; conditions: UO31, C, Kidney carcinoma
Procedure: as §1, §2, §3, §4, §5, §6

SW480 = experiment: Resazurin viability, 5 days; assay type: cell-based, human; conditions: SW480, C, Colorectal adenocarcinoma
Procedure: as §1, §2, §3, §4, §5, §6

Raji = experiment: Resazurin viability, 5 days; assay type: cell-based, human; conditions: C, Burkitt's lymphoma
Procedure: as §1, §2, §3, §4, §5, §6

MV4-11 = experiment: Resazurin viability, 5 days; assay type: cell-based, human; conditions: MV4-11, C, Acute monocytic leukemia
Procedure: as §1, §2, §3, §4, §5, §6

HeLa = experiment: Resazurin viability, 5 days; assay type: cell-based, human; conditions: C, Cervix adenomcarcinoma
Procedure: as §1, §2, §3, §4, §5, §6

HL-60 = experiment: Resazurin viability, 5 days; assay type: cell-based, human; conditions: HL-60, C, Acute promyelocytic leukemia
Procedure: as §1, §2, §3, §4, §5, §6

BJ-Tert = experiment: Resazurin viability, 5 days; assay type: cell-based, human
Procedure: as §1, §2, §3, §4, §5, §6

MRC5 = experiment: Resazurin viability, 5 days; assay type: cell-based, human; conditions: MRC5, N, Non-transformed lung fibroblast
Procedure: as §1, §2, §3, §4, §5, §6

[1] = Homo sapiens, 120 h, BJ-Tert, N, Tert-Immortalized fibroblast, 5 days, resazurin, read-out: EC50

O=C(Nc1ccc(I)cc1)N1CCC(n2c(=O)[nH]c3c(Br)cccc32)CC1 [TH5487]
EC50 (CCRF-CEM): 13 µM
Effect of bovine serum albumin on OGG1 inhibition (OGG1 enzyme; presence of 1% (w/v) bovine serum albumin): marked loss of inhibition of OGG1 enzyme activity
EC50 (Reh): 18.3 µM
EC50 (LCL#1): 31.1 µM
EC50 (Jurkat): 10.5 µM
EC50 (RFX393): 19.6 µM
EC50 (LCL#2): 27.7 µM
EC50 (ACHN): 2300 nM
EC50 (BJ-Ras): 4.8 µM
EC50 (CCD841): 43.3 µM
EC50 (M059J): 26.1 µM
EC50 (786-0): 29.7 µM
EC50 (KG1a): 14.3 µM
EC50 (PC3): 32.6 µM
EC50 (A498): 28.5 µM
EC50 (HCT116): 17.5 µM
EC50 (VH10): 32.4 µM
EC50 (SaOS2): 21.4 µM
EC50 (HT-29): 24.5 µM
EC50 (UO31): 2.9 µM
EC50 (SW480): 33.3 µM
EC50 (Raji): 19 µM
EC50 (MV4-11): 7.8 µM
EC50 (HeLa): 19.3 µM
EC50 (HL-60): 15.9 µM
EC50 (BJ-Tert; BJ-Tert, N, Tert-Immortalized fibroblast, 5 days, resazurin, read-out: EC50): 33.7 µM
EC50 (BJ-Tert; hTERT-immortalized BJ fibroblasts, five days, Figure 3C, read-out: EC50 (viability)): 29.5 ± 4.7 µM
EC50 (MRC5): 42.4 µM

O=C(Nc1ccc(Cl)c(Cl)c1)N1CCC(n2c(=O)[nH]c3c(-c4ccc(CO)nc4)cccc32)CC1 [TH5796, N-(3,4-Dichlorophenyl)-4-[4-[6-(hydroxymethyl)-3-pyridyl]-2-oxo-3H-benzimidazol-1-yl]piperidine-1-carbox amide]
EC50 (CCRF-CEM; Homo sapiens, 120 h): 10.5 µM
IC50 (OGG1 enzyme): 766 nM
EC50 (Reh; Homo sapiens, 120 h): 14.7 µM
EC50 (LCL#1; Homo sapiens, 120 h): 33.5 µM
EC50 (Jurkat; Homo sapiens, 120 h): 13.8 µM
EC50 (RFX393; Homo sapiens, 120 h): 14.2 µM
EC50 (LCL#2; Homo sapiens, 120 h): 40.7 µM
EC50 (ACHN; Homo sapiens, 120 h): 8500 nM
EC50 (BJ-Ras; Homo sapiens, 120 h): 15.1 µM
EC50 (CCD841; Homo sapiens, CCD-841, 120 h): 39.7 µM
EC50 (M059J; Homo sapiens, 120 h): 20.6 µM
EC50 (786-0; Homo sapiens, 120 h): 15.2 µM
EC50 (KG1a; Homo sapiens, KG-1a, 120 h): 18 µM
EC50 (PC3; Homo sapiens, PC-3, 120 h): 19.3 µM
EC50 (A498; Homo sapiens, 120 h): 21.2 µM
EC50 (HCT116; Homo sapiens, HCT-116, 120 h): 14.7 µM
EC50 (VH10; Homo sapiens, 120 h): 20.9 µM
EC50 (SaOS2; Homo sapiens, SAOS-2, 120 h): 16.2 µM
EC50 (HT-29; Homo sapiens, 120 h): 22.6 µM
EC50 (UO31; Homo sapiens, UO-31, 120 h): 7.1 µM
EC50 (SW480; Homo sapiens, 120 h): 20.3 µM
EC50 (Raji; Homo sapiens, 120 h): 20.5 µM
EC50 (MV4-11; Homo sapiens, 120 h): 6.5 µM
EC50 (HeLa; Homo sapiens, 120 h): 15.8 µM
EC50 (HL-60; Homo sapiens, 120 h): 14.4 µM
EC50 (BJ-Tert; [1]): 24.4 µM
EC50 (MRC5; Homo sapiens, 120 h): 20.8 µM

Cc1cc(NC(=O)N2CCC(n3c(=O)[nH]c4c(Br)cccc43)CC2)ccc1I [TH6943, 4-(4-Bromo-2-oxo-3H-benzimidazol-1-yl)-N-(4-iodo-3-methyl-phenyl)piperidine-1-carboxamide]
EC50 (CCRF-CEM; Homo sapiens, 120 h): 7.9 µM
IC50 (OGG1 enzyme): 170 nM
EC50 (Reh; Homo sapiens, 120 h): 17.3 µM
EC50 (LCL#1; Homo sapiens, 120 h): 40 µM
EC50 (Jurkat; Homo sapiens, 120 h): 15.2 µM
EC50 (RFX393; Homo sapiens, 120 h): 11.7 µM
EC50 (LCL#2; Homo sapiens, 120 h): 32.3 µM
EC50 (ACHN; Homo sapiens, 120 h): 2800 nM
EC50 (BJ-Ras; Homo sapiens, 120 h): 14.1 µM
EC50 (CCD841; Homo sapiens, CCD-841, 120 h): 54.2 µM
EC50 (M059J; Homo sapiens, 120 h): 29.4 µM
EC50 (786-0; Homo sapiens, 120 h): 33 µM
EC50 (KG1a; Homo sapiens, KG-1a, 120 h): 18.8 µM
EC50 (PC3; Homo sapiens, PC-3, 120 h): 28.7 µM
EC50 (A498; Homo sapiens, 120 h): 35.1 µM
EC50 (HCT116; Homo sapiens, HCT-116, 120 h): 28.6 µM
EC50 (VH10; Homo sapiens, 120 h): 47.5 µM
EC50 (SaOS2; Homo sapiens, SAOS-2, 120 h): 19.8 µM
EC50 (HT-29; Homo sapiens, 120 h): 22 µM
EC50 (UO31; Homo sapiens, UO-31, 120 h): 3.2 µM
EC50 (SW480; Homo sapiens, 120 h): 29.8 µM
EC50 (Raji; Homo sapiens, 120 h): 23.4 µM
EC50 (MV4-11; Homo sapiens, 120 h): 9.6 µM
EC50 (HeLa; Homo sapiens, 120 h): 34.9 µM
EC50 (HL-60; Homo sapiens, 120 h): 23.9 µM
EC50 (BJ-Tert; [1]): 30.5 µM
EC50 (MRC5; Homo sapiens, 120 h): 47.1 µM
